Each structure is given as a SMILES string.

Results on one molecule are retold here after patent publication US6759410B1, “3,4-dihydro-(1H)-quinazolin-2-ones and their use as CSBP/p38 kinase inhibitors” (SmithLine Beecham Corporation, priority 1999, dated 2004).

In turn, `Cc1ccccc1-c1cccc2c1CNC(=O)N2c1ccccc1` [Example 14, 1-Phenyl-5-(2-methylphenyl)-3,4-dihydro-(1H)-quinazolin-2-one] gave a melting point of 236 to 238 °C.

In general, melting point refers to the temperature of the solid-liquid transition.
